Measurements reported in PubChem BioAssay (NCI).
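96-well plates; 48 h exposure; 5 concentrations. Endpoints by linear interpolation between flanking doses. Not reached: highest tested concentration assigned. The concentration for 50% growth inhibition is given as GI50. TGI denotes the concentration required for complete inhibition of growth.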

Assays:
Experiment in all cases: growth of human tumour cells (NCI), 48 h
UACC-62 melanoma = test system: UACC-62 melanoma
RXF 393 renal = test system: RXF 393 renal
SNB-75 CNS = test system: SNB-75 CNS
MDA-MB-435 = test system: MDA-MB-435
SK-MEL-28 melanoma = test system: SK-MEL-28 melanoma
HL-60(TB) leukemia = test system: HL-60(TB) leukemia
NCI-H460 lung = test system: NCI-H460 lung
BT-549 breast = test system: BT-549 breast
CCRF-CEM leukemia = test system: CCRF-CEM leukemia
T-47D breast = test system: T-47D breast
LOX IMVI melanoma = test system: LOX IMVI melanoma
SN12C renal = test system: SN12C renal
SK-OV-3 ovarian = test system: SK-OV-3 ovarian
PC-3 prostate = test system: PC-3 prostate
MCF7 breast = test system: MCF7 breast
UACC-257 melanoma = test system: UACC-257 melanoma
HOP-92 NSCLC = test system: HOP-92 NSCLC
HS 578T breast = test system: HS 578T breast
UO-31 renal = test system: UO-31 renal
COLO 205 colon = test system: COLO 205 colon
OVCAR-5 ovarian = test system: OVCAR-5 ovarian
HT29 colon = test system: HT29 colon
SF-295 CNS = test system: SF-295 CNS
OVCAR-8 ovarian = test system: OVCAR-8 ovarian
OVCAR-3 ovarian = test system: OVCAR-3 ovarian
IGROV1 ovarian = test system: IGROV1 ovarian
A549 NSCLC = test system: A549 NSCLC
OVCAR-4 ovarian = test system: OVCAR-4 ovarian
NCI-H226 lung = test system: NCI-H226 lung
MDA-MB-468 breast = test system: MDA-MB-468 breast
SW-620 colon = test system: SW-620 colon
SF-268 CNS = test system: SF-268 CNS
A498 renal = test system: A498 renal
K-562 leukemia = test system: K-562 leukemia
U251 CNS = test system: U251 CNS
SF-539 CNS = test system: SF-539 CNS
RPMI-8226 leukemia = test system: RPMI-8226 leukemia
SR leukemia = test system: SR leukemia
HOP-62 NSCLC = test system: HOP-62 NSCLC
786-0 renal = test system: 786-0 renal
HCT-116 colon = test system: HCT-116 colon
MDA-MB-231 breast = test system: MDA-MB-231 breast
SK-MEL-2 melanoma = test system: SK-MEL-2 melanoma
NCI/ADR-RES ovarian = test system: NCI/ADR-RES ovarian
TK-10 renal = test system: TK-10 renal
MALME-3M melanoma = test system: MALME-3M melanoma
SNB-19 CNS = test system: SNB-19 CNS
MOLT-4 leukemia = test system: MOLT-4 leukemia
HCC-2998 colon = test system: HCC-2998 colon
CAKI-1 renal = test system: CAKI-1 renal
DU-145 prostate = test system: DU-145 prostate
M14 melanoma = test system: M14 melanoma
KM12 colon = test system: KM12 colon
EKVX NSCLC = test system: EKVX NSCLC
HCT-15 colon = test system: HCT-15 colon
ACHN renal = test system: ACHN renal
NCI-H522 lung = test system: NCI-H522 lung
SK-MEL-5 melanoma = test system: SK-MEL-5 melanoma
NCI-H23 lung = test system: NCI-H23 lung

For `C#C[C@]1(O)CC[C@H]2[C@@H]3CC=C4c5sc(-c6ccc([N+](=O)[O-])cc6)nc5CC[C@]4(C)[C@H]3CC[C@@]21C`, the GI50 (UACC-62 melanoma) was 14.3 µM, the TGI (UACC-62 melanoma) was 27.4 µM and the GI50 (RXF 393 renal) was 0.625 µM. It also gave a TGI (RXF 393 renal) of 3.18 µM, a GI50 (SNB-75 CNS) of 2.93 µM and a TGI (SNB-75 CNS) of 18.6 µM. The GI50 (MDA-MB-435) was 11.9 µM, the TGI (MDA-MB-435) was 25.9 µM and the GI50 (SK-MEL-28 melanoma) was 7.33 µM. The TGI (SK-MEL-28 melanoma) was 20.5 µM, the GI50 (HL-60(TB) leukemia) was 13.5 µM and the TGI (HL-60(TB) leukemia) was 42.6 µM. For the same compound, the GI50 (NCI-H460 lung) was 6.19 µM, the TGI (NCI-H460 lung) was 25.8 µM and the GI50 (BT-549 breast) was 3.76 µM. For the same compound, the TGI (BT-549 breast) was 16.7 µM, the GI50 (CCRF-CEM leukemia) was 4.36 µM and the TGI (CCRF-CEM leukemia) was 31.9 µM. It also gave a GI50 (T-47D breast) of 7.23 µM, a TGI (T-47D breast) of 25.2 µM and a GI50 (LOX IMVI melanoma) of 6.89 µM. For the same compound, the TGI (LOX IMVI melanoma) was 33.1 µM, the GI50 (SN12C renal) was 13 µM and the TGI (SN12C renal) was 26.3 µM. The GI50 (SK-OV-3 ovarian) was 12.3 µM, the TGI (SK-OV-3 ovarian) was 30.6 µM and the GI50 (PC-3 prostate) was 7.18 µM. It also gave a TGI (PC-3 prostate) of 95.7 µM, a GI50 (MCF7 breast) of 3.07 µM and a TGI (MCF7 breast) of 16.6 µM. For the same compound, the GI50 (UACC-257 melanoma) was 12.1 µM, the TGI (UACC-257 melanoma) was 25 µM and the GI50 (HOP-92 NSCLC) was 22.3 µM. For the same compound, the TGI (HOP-92 NSCLC) was 47.4 µM, the GI50 (HS 578T breast) was 2.04 µM and the TGI (HS 578T breast) was 10.3 µM. For the same compound, the GI50 (UO-31 renal) was 5.02 µM, the TGI (UO-31 renal) was 16.2 µM and the GI50 (COLO 205 colon) was 14.9 µM. It also gave a TGI (COLO 205 colon) of 33.8 µM, a GI50 (OVCAR-5 ovarian) of 12 µM and a TGI (OVCAR-5 ovarian) of 24.3 µM. It also gave a GI50 (HT29 colon) of 11.4 µM, a TGI (HT29 colon) of 35.2 µM and a GI50 (SF-295 CNS) of 0.41 µM. The TGI (SF-295 CNS) was 1.8 µM, the GI50 (OVCAR-8 ovarian) was 15.3 µM and the TGI (OVCAR-8 ovarian) was 38.5 µM. The GI50 (OVCAR-3 ovarian) was 14.9 µM, the TGI (OVCAR-3 ovarian) was 31.7 µM and the GI50 (IGROV1 ovarian) was 10.3 µM. It also gave a TGI (IGROV1 ovarian) of 30.9 µM, a GI50 (A549 NSCLC) of 12.5 µM and a TGI (A549 NSCLC) of 36.2 µM. It also gave a GI50 (OVCAR-4 ovarian) of 15.4 µM, a TGI (OVCAR-4 ovarian) of 43.7 µM and a GI50 (NCI-H226 lung) of 18.1 µM. It also gave a TGI (NCI-H226 lung) of 50.2 µM, a GI50 (MDA-MB-468 breast) of 12.4 µM and a TGI (MDA-MB-468 breast) of 28.9 µM. It also gave a GI50 (SW-620 colon) of 8.39 µM, a TGI (SW-620 colon) of 27.2 µM and a GI50 (SF-268 CNS) of 12.8 µM. For the same compound, the TGI (SF-268 CNS) was 43.6 µM, the GI50 (A498 renal) was 4.04 µM and the TGI (A498 renal) was 13.8 µM. The GI50 (K-562 leukemia) was 3.26 µM, the TGI (K-562 leukemia) was greater than 100 µM and the GI50 (U251 CNS) was 2.99 µM. The TGI (U251 CNS) was 18.8 µM, the GI50 (SF-539 CNS) was 0.895 µM and the TGI (SF-539 CNS) was 3.61 µM. The GI50 (RPMI-8226 leukemia) was 0.404 µM, the TGI (RPMI-8226 leukemia) was 6.27 µM and the GI50 (SR leukemia) was 2.49 µM. For the same compound, the TGI (SR leukemia) was greater than 100 µM, the GI50 (HOP-62 NSCLC) was 11.5 µM and the TGI (HOP-62 NSCLC) was 30 µM. For the same compound, the GI50 (786-0 renal) was 1.84 µM, the TGI (786-0 renal) was 13.4 µM and the GI50 (HCT-116 colon) was 10.2 µM. The TGI (HCT-116 colon) was 23.3 µM, the GI50 (MDA-MB-231 breast) was 12.3 µM and the TGI (MDA-MB-231 breast) was 27.4 µM. For the same compound, the GI50 (SK-MEL-2 melanoma) was 7.18 µM, the TGI (SK-MEL-2 melanoma) was 21.3 µM and the GI50 (NCI/ADR-RES ovarian) was 16.4 µM. For the same compound, the TGI (NCI/ADR-RES ovarian) was 67.9 µM, the GI50 (TK-10 renal) was 13.8 µM and the TGI (TK-10 renal) was 26.7 µM. The GI50 (MALME-3M melanoma) was 3.59 µM, the TGI (MALME-3M melanoma) was 16.5 µM and the GI50 (SNB-19 CNS) was 13.8 µM. For the same compound, the TGI (SNB-19 CNS) was 29.8 µM, the GI50 (MOLT-4 leukemia) was 2.61 µM and the TGI (MOLT-4 leukemia) was 33.1 µM. For the same compound, the GI50 (HCC-2998 colon) was 7.21 µM, the TGI (HCC-2998 colon) was 23.1 µM and the GI50 (CAKI-1 renal) was 10.8 µM. For the same compound, the TGI (CAKI-1 renal) was 22.7 µM, the GI50 (DU-145 prostate) was 12.8 µM and the TGI (DU-145 prostate) was 30.3 µM. For the same compound, the GI50 (M14 melanoma) was 2.74 µM, the TGI (M14 melanoma) was 12.2 µM and the GI50 (KM12 colon) was 17 µM. It also gave a TGI (KM12 colon) of 38.4 µM, a GI50 (EKVX NSCLC) of 10.1 µM and a TGI (EKVX NSCLC) of 23.8 µM. It also gave a GI50 (HCT-15 colon) of 3.99 µM, a TGI (HCT-15 colon) of 23.9 µM and a GI50 (ACHN renal) of 12.2 µM. For the same compound, the TGI (ACHN renal) was 24.6 µM, the GI50 (NCI-H522 lung) was 15.1 µM and the TGI (NCI-H522 lung) was 38 µM. For the same compound, the GI50 (SK-MEL-5 melanoma) was 5.45 µM, the TGI (SK-MEL-5 melanoma) was 17.9 µM and the GI50 (NCI-H23 lung) was 13.8 µM. For the same compound, the TGI (NCI-H23 lung) was 29.9 µM.
